Assay results: patent publication US20240018140A1, “MODIFIED IMIDAZOPYRIDINES AS GLUCOSYLCERAMIDE SYNTHASE INHIBITORS” (Merck Sharp & Dohme LLC, priority 2020, published 2024)

Target: glucosylceramide synthase (GCS) (Homo sapiens (Human), UniProt Q16739)
Experiment: UDP-Glo glucosylceramide synthase biochemical assay
Settings: endogenous GCS in Golgi preparations from human A375 malignant melanoma skin cells; C6 ceramide and UDP-glucose substrates; 20 h incubation; UDP detected by luminescence
Text: UDP-Glo™ Glucosylceramide Synthase Biochemical Assay
A UDP-Glo™ glucosylceramide synthase biochemical assay was utilized to evaluate the effect of test compounds on the activity of endogenous levels of GCS enzyme contained within Golgi preparations isolated from human A375 malignant melanoma skin cells. The UDP-Glo™ glucosylceramide synthase assay uses UDP-Glucose as a nucleotide-glycosyl donor and ceramide as substrate acceptor molecules. In the reaction, glucosylceramide synthase (GCS) transfers glucose from UDP-Glucose to ceramide. Glucosylceramide and UDP are released as products.
Using Promega's UDP-Glo™ Glycosyltransferase assay kit (Promega Corporation, Madison, WI, USA (Promega)), GCS activity was indirectly measured by detecting the amount of UDP produced. An aliquot of GCS enzyme (1.5 μg crude golgi preparation, total protein) and titrated test compound were aliquoted to each well and incubated for 30 minutes at room temperature. […] An equivalent volume of substrate mixture was then added to each well. Following a 20 h incubation at room temperature to allow for GCS turnover of substrate, an equal volume of UDP detection reagent (Promega) was added to each well and incubated for an additional 75 minutes at room temperature to simultaneously convert the accumulated UDP product into ATP and generate light in a luciferase reaction. The generated light was detected using a luminometer. […] luminescence values (RLUs) were normalized to mean “min” and “max” effects, as determined on each plate. “Min” was defined as the mean of the values of the wells treated with vehicle (DMSO) and which represent 0% inhibition; “max” was defined as the mean of the values of the wells treated with a reference inhibitor and which represent the 100% effect. Values for % Emax and EC50 were determined by best-fitting the normalized data to a curve in Activity Base along a four-parameter logistic nonlinear regression (4PL) model (based on the Levenberg-Marquardt algorithm and defined by the equation below): […]
where: n is 4PMin (bottom of the curve); m is 4PMax (top of the curve); i is IP (inflection point of curve); and p is slope. See Levenberg, K., “A Method for the Solution of Certain Problems in Least Squares”, Quart. Appl. Math. 2, (1944), pp 164-168 and Marquardt, D., “An Algorithm for Least Squares Estimation on Nonlinear Parameters”, SIAM J. Appl. Math. 11, (1963) pp 431-441.

Chain of glucosylceramide synthase (GCS) (Q16739 whole entry): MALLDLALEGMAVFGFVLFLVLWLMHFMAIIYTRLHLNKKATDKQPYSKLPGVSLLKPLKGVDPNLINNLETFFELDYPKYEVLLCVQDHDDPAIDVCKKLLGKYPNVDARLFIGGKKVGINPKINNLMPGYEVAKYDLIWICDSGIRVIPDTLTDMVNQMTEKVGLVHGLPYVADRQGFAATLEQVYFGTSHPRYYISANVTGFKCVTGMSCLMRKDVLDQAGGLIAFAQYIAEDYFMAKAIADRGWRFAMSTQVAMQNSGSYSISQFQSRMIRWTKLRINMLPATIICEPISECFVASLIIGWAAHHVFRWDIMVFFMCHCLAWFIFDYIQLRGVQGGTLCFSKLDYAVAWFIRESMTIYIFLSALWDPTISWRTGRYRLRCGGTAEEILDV

| EC50 [nM] | SMILES |
| --- | --- |
| 7.9 | OCC1COC(c2cn3cc(Cl)cc(-c4ccccc4OCC(F)(F)F)c3n2)=N1 (stereo not shown) [Compound 72, [2-[6-chloro-8-[2-(2,2,2-trifluoroethoxy)phenyl]imidazo[1,2-a]pyridin-2-yl]-4,5-dihydrooxazol-4-yl]methanol] |
| 0.83 | O=C(N[C@@H]1CNCC[C@H]1F)c1cn2cccc(-c3ccccc3OCC(F)(F)F)c2n1 (relative stereo) [Compound 16, N-(trans-4-fluoropiperidin-3-yl)-8-(2-(2,2,2-trifluoroethoxy)phenyl)imidazo[1,2-a]pyridine-2-carboxamide] |
| 11 | O=C(Nc1ccc2cccc(-c3ccccc3OCC(F)(F)F)c2n1)[C@H]1C[C@@H](O)C1 [Compound 81, cis-3-hydroxy-N-(8-(2-(2,2,2-trifluoroethoxy)phenyl)quinolin-2-yl)cyclobutane-1-carboxamide] |
| 1.3 | O=C(N[C@H]1CC[C@@H](CO)CC1)c1cn2cc(F)cc(-c3ccccc3OCC(F)(F)F)c2n1 [Compound 27, 6-fluoro-N-(cis-4-(hydroxymethyl)cyclohexyl)-8-(2-(2,2,2-trifluoroethoxy)phenyl)imidazo[1,2-a]pyridine-2-carboxamide] |
| 6.1 | O=C(NC1CCCOC1)c1cn2cccc(-c3ccccc3OCC(F)(F)F)c2n1 (single isomer, unassigned) [Compound 2, (R or S)-N-(tetrahydro-2H-pyran-3-yl)-8-(2-(2,2,2-trifluoroethoxy)phenyl)imidazo[1,2-a]pyridine-2-carboxamide] |
| 14 | N#Cc1cc(-c2ccccc2OCC(F)(F)F)c2nc(C(=O)N[C@H]3CC[C@H](O)CC3)cn2c1 [Compound 39, 6-cyano-N-(trans-4-hydroxycyclohexyl)-8-(2-(2,2,2-trifluoroethoxy)phenyl)imidazo[1,2-a]pyridine-2-carboxamide] |
| 10 | NC(CNC(=O)c1cn2cc(Cl)cc(-c3ccccc3OCC(F)(F)F)c2n1)C(F)(F)F (stereo not shown) [Compound 23, N-(2-amino-3,3,3-trifluoropropyl)-6-chloro-8-(2-(2,2,2-trifluoroethoxy)phenyl)imidazo[1,2-a]pyridine-2-carboxamide] |
| 0.15 | Cc1ccncc1NC(=O)c1cn2cccc(-c3ccccc3OCC(F)(F)F)c2n1 [Compound 56, N-(4-methylpyridin-3-yl)-8-(2-(2,2,2-trifluoroethoxy)phenyl)imidazo[1,2-a]pyridine-2-carboxamide] |
| 2.1 | O=C(N[C@H]1CC[C@H](O)CC1)c1cn2cc(C(F)(F)F)cc(-c3ccccc3OCC(F)(F)F)c2n1 [Compound 36, N-(trans-4-hydroxycyclohexyl)-8-(2-(2,2,2-trifluoroethoxy)phenyl)-6-(trifluoromethyl)imidazo[1,2-a]pyridine-2-carboxamide] |
| 0.86 | CC(C)(CO)NC(=O)c1cn2cc(Cl)cc(-c3ccccc3OCC(F)(F)F)c2n1 [Compound 20, 6-chloro-N-(1-hydroxy-2-methylpropan-2-yl)-8-(2-(2,2,2-trifluoroethoxy)phenyl)imidazo[1,2-a]pyridine-2-carboxamide] |
| 4.3 | O=C(N[C@@H]1COC[C@@H]1F)c1cn2cc(Cl)cc(-c3ccccc3OCC(F)(F)F)c2n1 [Compound 45, 6-chloro-N-((3R,4R)-4-fluorotetrahydrofuran-3-yl)-8-(2-(2,2,2-trifluoroethoxy)phenyl)imidazo[1,2-a]pyridine-2-carboxamide] |
| 5.5 | O=C(NC(c1cccnc1)C(F)(F)F)c1cn2cccc(-c3ccccc3OCC(F)(F)F)c2n1 (racemic) [Compound 38, (R and S)-N-(2,2,2-trifluoro-1-(pyridin-3-yl)ethyl)-8-(2-(2,2,2-trifluoroethoxy)phenyl)imidazo[1,2-a]pyridine-2-carboxamide] |
| 21 | O=C(c1cn2cccc(-c3ccccc3OCC(F)(F)F)c2n1)N1CCOC2(CCOC2)C1 (racemic) [Compound 50, (R and S)-(2,6-dioxa-9-azaspiro[4.5]decan-9-yl)(8-(2-(2,2,2-trifluoroethoxy)phenyl)imidazo[1,2-a]pyridin-2-yl)methanone] |
| 11 | O=C(NC1(CO)CCCC1)c1cn2cccc(-c3ccccc3OCC(F)(F)F)c2n1 [Compound 21, N-(1-(hydroxymethyl)cyclopentyl)-8-(2-(2,2,2-trifluoroethoxy)phenyl)imidazo[1,2-a]pyridine-2-carboxamide] |
| 2.9 | O=C(c1cn2cccc(-c3ccccc3OCC(F)(F)F)c2n1)N1CCn2ccnc2C1 [Compound 55, (5,6-dihydroimidazo[1,2-a]pyrazin-7(8H)-yl)(8-(2-(2,2,2-trifluoroethoxy)phenyl)imidazo[1,2-a]pyridin-2-yl)methanone] |
| 0.23 | O=C(N[C@@H]1CCC[C@H](CO)C1)c1cn2cccc(-c3ccccc3OCC(F)(F)F)c2n1 (relative stereo) [Compound 31, N-(cis-3-(hydroxymethyl)cyclohexyl)-8-(2-(2,2,2-trifluoroethoxy)phenyl)imidazo[1,2-a]pyridine-2-carboxamide] |
| 14 | CC(C)(NC(=O)c1nc2c(-c3ccccc3OCC(F)(F)F)cccn2c1F)C(F)(F)F [Compound 33, 3-fluoro-N-(1,1,1-trifluoro-2-methylpropan-2-yl)-8-(2-(2,2,2-trifluoroethoxy)phenyl)imidazo[1,2-a]pyridine-2-carboxamide] |
| 0.79 | CC1(O)CCC(NC(=O)c2cn3cc(F)cc(-c4ccccc4OCC(F)(F)F)c3n2)CC1 (stereo not drawn) [Compound 26, cis or trans-6-fluoro-N-(4-hydroxy-4-methylcyclohexyl)-8-(2-(2,2,2-trifluoroethoxy)phenyl)imidazo[1,2-a]pyridine-2-carboxamide] |
| 1.7 | CC(C)(NC(=O)c1cn2cc(F)cc(-c3ccccc3OCC(F)(F)F)c2n1)C(F)(F)F [Compound 41, 6-fluoro-N-(1,1,1-trifluoro-2-methylpropan-2-yl)-8-(2-(2,2,2-trifluoroethoxy)phenyl)imidazo[1,2-a]pyridine-2-carboxamide] |
| 0.91 | O=C(N[C@H]1CCOC1)c1cn2cc(Cl)cc(-c3ccccc3OCC(F)(F)F)c2n1 [Compound 5, (S)-6-chloro-N-(tetrahydrofuran-3-yl)-8-(2-(2,2,2-trifluoroethoxy)phenyl)imidazo[1,2-a]pyridine-2-carboxamide] |
| 18 | CN1CC2(C1)CN(C(=O)c1cn3cccc(-c4ccccc4OCC(F)(F)F)c3n1)CCO2 [Compound 49, (2-methyl-5-oxa-2,8-diazaspiro[3.5]nonan-8-yl)(8-(2-(2,2,2-trifluoroethoxy)phenyl)imidazo[1,2-a]pyridin-2-yl)methanone] |
| 0.51 | O=C(c1cn2cc(C(F)(F)F)cc(-c3ccccc3OCC(F)(F)F)c2n1)N1CCOC2(COC2)C1 [Compound 51, (2,5-dioxa-8-azaspiro[3.5]nonan-8-yl)(8-(2-(2,2,2-trifluoroethoxy)phenyl)-6-(trifluoromethyl)imidazo[1,2-a]pyridin-2-yl)methanone] |
| 3.1 | CC(C)(NC(=O)c1cn2cccc(-c3ccccc3OCC(F)(F)F)c2n1)C(F)(F)F [Compound 3, N-(1,1,1-trifluoro-2-methylpropan-2-yl)-8-(2-(2,2,2-trifluoroethoxy)phenyl)imidazo[1,2-a]pyridine-2-carboxamide] |
| 4.5 | O=C(c1cn2cccc(-c3ccccc3OCC(F)(F)F)c2n1)N1CC2CC1(CF)C2 [Compound 48, (1-(fluoromethyl)-2-azabicyclo[2.1.1]hexan-2-yl)(8-(2-(2,2,2-trifluoroethoxy)phenyl)imidazo[1,2-a]pyridin-2-yl)methanone] |
| 6 | N#Cc1cnccc1NC(=O)c1cn2cccc(-c3ccccc3OCC(F)(F)F)c2n1 [Compound 59, N-(3-cyanopyridin-4-yl)-8-(2-(2,2,2-trifluoroethoxy)phenyl)imidazo[1,2-a]pyridine-2-carboxamide] |
| 30 | CC1(C)OCC1NC(=O)c1cn2cccc(-c3ccccc3OCC(F)(F)F)c2n1 (stereo not shown) [Compound 53, N-(2,2-dimethyloxetan-3-yl)-8-(2-(2,2,2-trifluoroethoxy)phenyl)imidazo[1,2-a]pyridine-2-carboxamide] |
| 36 | O=C(c1cn2cccc(-c3ccccc3OCC(F)(F)F)c2n1)N1Cc2cccnc2C1 [Compound 12, (5,7-dihydro-6H-pyrrolo[3,4-b]pyridin-6-yl)(8-(2-(2,2,2-trifluoroethoxy)phenyl)imidazo[1,2-a]pyridin-2-yl)methanone] |
| 32 | CC1(CO)COC(c2cn3cc(Cl)cc(-c4ccccc4OCC(F)(F)F)c3n2)=N1 (stereo not shown) [Compound 73, [2-[6-chloro-8-[2-(2,2,2-trifluoroethoxy)phenyl]imidazo[1,2-a]pyridin-2-yl]-4-methyl-5H-oxazol-4-yl]methanol] |
